# pIC50, pKd: −log10 of the molar value. Where two headings read alike, the source gives them in different places.
# Key:
# [1] = test system: JAK1/TYK2 pSTAT5 (Tyr694/699) in THP-1 cell line; assay: IFNa-stimulated JAK1/TYK2 pSTAT5 (Tyr694/699) inhibition cellular assay, AlphaLISA; type: cell-based; settings: Homo sapiens, THP-1 cells, AlphaLISA (Assay B)
# Summary of the method: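 pSTAT5 (Tyr694/699) in lysates quantified by AlphaLISA (615 nm) after 30 min IFNa stimulation (100 ng/mL stock) of THP-1 cells. The cells, 2e4 per well in HBSS, had first been exposed 1 h at 37° C. to eight 6-fold compound dilutions, 10000 down to 0.04 nM final. IC50 fitted by 4PL regression, bottom 0, Hill slope −1.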
# TYK2 JH2 = molecular target: T1, TYK2 JH2 (Homo sapiens, UniProt P29597); assay: TYK2 JH2 binding assay (KINOMEscan KdELECT competitive binding); settings: TYK2 JH2 domain
# T1 construct: purchased DiscoverX (KINOMEscan KdELECT service); host or cells: E. coli BL21-derived (T7 phage display) or HEK-293
# Summary of the method: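 JH2-domain fragment, expressed as T7 phage tag in BL21-derived E. coli or DNA-tagged from HEK-293, competed with test compound against bead-immobilized biotinylated ligand in binding buffer (0.9% DMSO). 1 h shaking at room temperature; bound kinase eluted with 0.5 μM free ligand and quantified by qPCR. Kd from 11-point 3-fold dilutions.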
# [2] = IFNa-stimulated, read-out: Cellular THP1_IFNa-pSTATS_IC50
# [3] = KINOMEscan KdELECT (Assay A), read-out: Biochemical TYK2_JH2_Kd
# [4] = IFNa-stimulated, read-out: Cellular_THP1_IFNa-pSTATS_TYK2
# [5] = DiscoverX KINOMEscan KdELECT (Assay A), read-out: Biochemical TYK2_DiscoverX_JH2_BND_Kd
# [6] = KINOMEscan KdELECT (Assay A), read-out: Biochemical TYK2_DiscoverX_JH2_BND_Kd
# [7] = IFNa-stimulated pSTAT5 (Tyr694/699), read-out: Cellular_THP1_IFNa-pSTATS_TYK2
# T1 sequence (P29597 589-875 limits assumed): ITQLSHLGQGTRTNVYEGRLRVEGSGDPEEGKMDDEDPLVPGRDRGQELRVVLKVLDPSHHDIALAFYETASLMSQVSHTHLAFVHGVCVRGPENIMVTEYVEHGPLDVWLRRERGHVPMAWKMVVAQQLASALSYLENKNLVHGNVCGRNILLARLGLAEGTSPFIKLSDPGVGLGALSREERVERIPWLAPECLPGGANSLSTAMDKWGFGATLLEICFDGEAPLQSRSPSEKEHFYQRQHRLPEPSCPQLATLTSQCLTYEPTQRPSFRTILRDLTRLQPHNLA
SMILES,"pIC50 [1, 4]",pKd (TYK2 JH2; [5]),pKd (TYK2 JH2; [6]),also measured
"CNc1ncc(-c2cc(Br)no2)c2cc(NC(=O)C3CC3)ncc12 [Example 126, N-(5-(3-bromoisoxazol-5-yl)-8-(methylamino)-2,7-naphthyridin-3-yl)cyclopropanecarboxamide]",,,,"pIC50 [1, 2]: < 6.30; pKd (TYK2 JH2; [3]): ≥ 7.00"
"CC[C@@H]1C[C@H]1C(=O)Nc1cc2c(-c3nc4ccc(N5CCOCC5)cn4n3)cnc(NC)c2cn1 (single isomer, unassigned) [Example 586]",≥ 6.30,≥ 7.00,,
"CCc1ncc(-c2ccccc2)c2cc(NC(=O)C3CC3)ncc12 [Example 96, N-(8-ethyl-5-phenyl-2,7-naphthyridin-3-yl)cyclopropanecarboxamide]",,,,"pIC50 [1, 2]: < 6.30; pKd (TYK2 JH2; [3]): ≥ 7.00"
"CNc1ncc(-c2nc3cc(OC)ccc3o2)c2cc(NC(=O)[C@H]3C[C@H]3F)ncc12 [Example 387, (1R,2R)-2-fluoro-N-(5-(5-methoxybenzo[d]oxazol-2-y1)-8-(methylamino)-2,7-naphthyridin-3-yl)cyclopropane-1-carboxamide]",≥ 6.30,≥ 7.00,,
"CCC(=O)Nc1cc2c(-c3nc4ccccc4o3)cnc(NC)c2cn1 [Example 428, N-(5-(benzo[d]oxazol-2-yl)-8-(methylamino)-2,7-naphthyridin-3-yl)propionamide]",≥ 6.30,≥ 7.00,,
"CNc1ncc(-c2nc3cc(/C(C)=N\OC)ccc3o2)c2cc(NC(=O)C3CC3)ncc12 [Example 462, (Z)—N-(5-(5-(1-(methoxyimino)ethyl)benzo[d]oxazol-2-yl)-8-(methylamino)-2,7-naphthyridin-3-yl)cyclopropanecarboxamide]",≥ 6.30,≥ 7.00,,
"[2H]C1([2H])Oc2ccc(C#Cc3cnc(NC)c4cnc(NC(=O)C5CC5)cc34)cc2O1 [Example 812, N-(5-((benzo[d][1,3]dioxol-5-yl-2,2-d2)ethynyl)-8-(methylamino)-2,7-naphthyridin-3-yl)cyclopropanecarboxamide]",≥ 6.30,,≥ 7.00,
"CNc1ncc(-c2nc3cc(O[C@H]4C[C@H](C#N)C4)ccc3o2)c2cc(NC(=O)C3CC3)ncc12 [Example 233, N-(5-(5-((1r,3r)-3-cyanocyclobutoxy)benzo[d]oxazol-2-yl)-8-(methylamino)-2,7-naphthyridin-3-yl)cyclopropanecarboxamide]",≥ 6.30,≥ 7.00,,
"CNc1ncc(-c2nc3cc(N4CCO[C@@H](C)C4)ccc3o2)c2cc(NC(=O)[C@H]3C[C@H]3C(C)(C)O)ncc12 (racemic) [Example 416, 2-(2-hydroxypropan-2-yl)-N-(8-(methylamino)-5-(5-((S)-2-methylmorpholino)benzo[d]oxazol-2-yl)-2,7-naphthyridin-3-yl)cyclopropane-1-carboxamide]",≥ 6.30,≥ 7.00,,
"CNc1ncc(-c2nc3cc(N4CCC(F)C4)ccc3o2)c2cc(NC(=O)C3CC3)ncc12 (stereo not drawn) [Example 943, N-(5-(5-(3-fluoropyrrolidin-1-yl)benzo[d]oxazol-2-yl)-8-(methylamino)-2,7-naphthyridin-3-yl)cyclopropanecarboxamide]",≥ 6.30,,≥ 7.00,
"CNc1ncc(-c2[nH]ncc2C)c2cc(NC(=O)C3CC3)ncc12 [Example 40, N-(5-(4-methyl-1H-pyrazol-5-yl)-8-(methylamino)-2,7-naphthyridin-3-yl)cyclopropanecarboxamide]",,,,"pIC50 [1, 2]: < 6.30; pKd (TYK2 JH2; [3]): ≥ 7.00"
"CNc1ncc(Cc2ccccc2)c2cc(NC(=O)C3CC3)ncc12 [Example 43, N-(5-benzyl-8-(methylamino)-2,7-naphthyridin-3-yl)cyclopropanecarboxamide]",,,,"pIC50 [1, 2]: < 6.30; pKd (TYK2 JH2; [3]): ≥ 7.00"
"CNc1ncc(C#CC2CCOCC2)c2cc(NC(=O)C3CC3)ncc12 [Example 592, N-(8-(methylamino)-5-((tetrahydro-2H-pyran-4-yl)ethynyl)-2,7-naphthyridin-3-yl)cyclopropanecarboxamide]",< 6.30,,≥ 7.00,
"CNc1ncc(C#Cc2ccc(OC3(C)COC3)cc2)c2cc(NC(=O)C3CC3)ncc12 [Example 706, N-(8-(methylamino)-5-((4-((3-methyloxetan-3-yl)oxy)phenyl)ethynyl)-2,7-naphthyridin-3-yl)cyclopropanecarboxamide]",≥ 6.30,,≥ 7.00,
"C=C(C)c1cnc(NC)c2cnc(NC(=O)C3CC3)cc12 [Example 73, N-(8-(methylamino)-5-(prop-1-en-2-yl)-2,7-naphthyridin-3-yl)cyclopropanecarboxamide]",,,,"pIC50 [1, 2]: < 6.30; pKd (TYK2 JH2; [3]): ≥ 7.00"
"CNc1ncc(-c2nc3ccc(N4CCO[C@H]([C@H](C)O)C4)cn3n2)c2cc(NC(=O)C3CC3)ncc12 (single isomer, unassigned) [Example 1047]",,,≥ 7.00,"pIC50 [1, 7]: ≥ 6.30"
"CNc1ncc(-c2nc3ccc(N4CC(F)(F)C4)cn3n2)c2cc(NC(=O)C3CC3)ncc12 [Example 472, N-(5-(6-(3,3-difluoroazetidin-1-yl)-[1,2,4]triazolo[1,5-a]pyridin-2-yl)-8-(methylamino)-2,7-naphthyridin-3-yl)cyclopropanecarboxamide]",≥ 6.30,≥ 7.00,,
"CNc1ncc(-c2nc3cc(OC4CNC4)ccc3o2)c2cc(NC(=O)C3CC3)ncc12 [Example 197, N-(5-(5-(azetidin-3-yloxy)benzo[d]oxazol-2-yl)-8-(methylamino)-2,7-naphthyridin-3-yl)cyclopropanecarboxamide]",≥ 6.30,≥ 7.00,,
"CNc1ncc(-c2ccn(Cc3ccccn3)n2)c2cc(NC(=O)C3CC3)ncc12 [Example 154, N-(8-(methylamino)-5-(1-(pyridin-2-ylmethyl)-1H-pyrazol-3-yl)-2,7-naphthyridin-3-yl)cyclopropanecarboxamide]",,,,"pIC50 [1, 2]: < 6.30; pKd (TYK2 JH2; [3]): ≥ 7.00"

# The next lines start with results.
"pIC50 [1, 4]",pKd (TYK2 JH2; [5]),pKd (TYK2 JH2; [6]),SMILES,also measured
≥ 6.30,,≥ 7.00,"CNc1ncc(-c2ccc(-c3c(C)cnn3C)cc2)c2cc(NC(=O)C3CC3)ncc12 [Example 847, N-(5-(4-(1,4-dimethyl-1H-pyrazol-5-yl)phenyl)-8-(methylamino)-2,7-naphthyridin-3-yl)cyclopropanecarboxamide]",
≥ 6.30,,≥ 7.00,"CNc1ncc(C#Cc2ccc3nnn(CCCOC)c3c2)c2cc(NC(=O)C3CC3)ncc12 [Example 688, N-(5-((1-(3-methoxypropyl)-1H-benzo[d][1,2,3]triazol-6-yl)ethynyl)-8-(methylamino)-2,7-naphthyridin-3-yl)cyclopropanecarboxamide]",
≥ 6.30,,≥ 7.00,"CNc1ncc(-c2nc3cc(N4CCO[C@H](C(C)(C)O)C4)ccc3o2)c2cc(NC(=O)C3CC3)ncc12 (single isomer, unassigned) [Example 926]",
≥ 6.30,,≥ 7.00,"CNc1ncc(/C=C/c2ccc(OCCOC)cc2)c2cc(NC(=O)C3CC3)ncc12 [Example 782, (E)-N-(5-(4-(2-methoxyethoxy)styryl)-8-(methylamino)-2,7-naphthyridin-3-yl)cyclopropanecarboxamide]",
≥ 6.30,≥ 7.00,,"CNc1ncc(-c2nc3c(O)cccc3o2)c2cc(NC(=O)C3CC3)ncc12 [Example 215, N-(5-(4-hydroxybenzo[d]oxazol-2-yl)-8-(methylamino)-2,7-naphthyridin-3-yl)cyclopropanecarboxamide]",
≥ 6.30,≥ 7.00,,"CNc1ncc(-c2nc3ccc(N4CCOCC4)cn3n2)c2cc(Nc3ccccn3)ncc12 [Example 536, N^1-methyl-4-(6-morpholino-[1,2,4]triazolo[1,5-a]pyridin-2-yl)-N^6-(pyridin-2-yl)-2,7-naphthyridine-1,6-diamine]",
< 6.30,≥ 7.00,,"CNc1ncc(-c2nc3cc(OC)ccc3o2)c2cc(NC3CCC(=O)O3)ncc12 (stereo not drawn) [Example 403, 5-((5-(5-methoxybenzo[d]oxazol-2-yl)-8-(methylamino)-2,7-naphthyridin-3-yl)amino)dihydrofuran-2(3H)-one]",
,,≥ 7.00,CNc1ncc(-c2nc3ccc(N4CCO[C@@H](CO)C4)cn3n2)c2cc(NC(=O)C3CC3)ncc12 [Example 1030],"pIC50 [1, 7]: ≥ 6.30"
,,≥ 7.00,"CNc1ncc(-c2nc3cc(NC(=O)C4CC4)ccc3o2)c2cc(NC(=O)C3CC3)ncc12 [Example 1091, N-(2-(6-(cyclopropanecarboxamido)-1-(methylamino)-2,7-naphthyridin-4-yl)benzo[d]oxazol-5-yl)cyclopropanecarboxamide]","pIC50 [1, 7]: ≥ 6.30"
≥ 6.30,,≥ 7.00,"CNc1ncc(C#Cc2cnc3cccnn23)c2cc(NC(=O)C3CC3)ncc12 [Example 611, N-(5-(imidazo[1,2-b]pyridazin-3-ylethynyl)-8-(methylamino)-2,7-naphthyridin-3-yl)cyclopropanecarboxamide]",
≥ 6.30,,≥ 7.00,"CNc1ncc(-c2ccc(OCCOC)cc2)c2cc(NC(=O)C3CC3)ncc12 [Example 859, N-(5-(4-(2-methoxyethoxy)phenyl)-8-(methylamino)-2,7-naphthyridin-3-yl)cyclopropanecarboxamide]",
